Measurements as given in the CheMixHub viscosity set.

Assay: xn = mol fraction of the nth substance listed

ClC(Cl)Cl + c1ccccc1
Conditions	viscosity [mPa·s]
293.15 K, 101 kPa, x1 = 0.101	0.627
293.15 K, 101 kPa, x1 = 0.245	0.606
293.15 K, 101 kPa, x1 = 0.433	0.593
293.15 K, 101 kPa, x1 = 0.653	0.582
298 K, 101 kPa, x2 = 0.1452	0.5431
298 K, 101 kPa, x2 = 0.2124	0.5457
298 K, 101 kPa, x2 = 0.2765	0.5478
298 K, 101 kPa, x2 = 0.3958	0.5532
298 K, 101 kPa, x2 = 0.5047	0.559
298 K, 101 kPa, x2 = 0.5556	0.562
298 K, 101 kPa, x2 = 0.6045	0.566
298 K, 101 kPa, x2 = 0.6513	0.5702
298 K, 101 kPa, x2 = 0.6963	0.5751
298 K, 101 kPa, x2 = 0.781	0.5844
298 K, 101 kPa, x2 = 0.8594	0.5943
298 K, 101 kPa, x2 = 0.8965	0.6002
298 K, 101 kPa, x2 = 0.9322	0.6044
298.15 K, 101 kPa, x1 = 0.0974	0.587
298.15 K, 101 kPa, x1 = 0.1964	0.581
298.15 K, 101 kPa, x1 = 0.2012	0.5935
298.15 K, 101 kPa, x1 = 0.3014	0.5886
298.15 K, 101 kPa, x1 = 0.3582	0.5866
298.15 K, 101 kPa, x1 = 0.4568	0.5805
298.15 K, 101 kPa, x1 = 0.4857	0.5773
298.15 K, 101 kPa, x1 = 0.6022	0.57
298.15 K, 101 kPa, x1 = 0.6861	0.557
298.15 K, 101 kPa, x1 = 0.7542	0.5603
298.15 K, 101 kPa, x1 = 0.8971	0.546
298.15 K, 101 kPa, x2 = 0.1029	0.546
298.15 K, 101 kPa, x2 = 0.1297	0.5454
298.15 K, 101 kPa, x2 = 0.2	0.525
298.15 K, 101 kPa, x2 = 0.2983	0.5512
298.15 K, 101 kPa, x2 = 0.3141	0.557
298.15 K, 101 kPa, x2 = 0.3724	0.5535
298.15 K, 101 kPa, x2 = 0.4	0.541
298.15 K, 101 kPa, x2 = 0.4086	0.5544
298.15 K, 101 kPa, x2 = 0.49	0.558
298.15 K, 101 kPa, x2 = 0.5395	0.5613
298.15 K, 101 kPa, x2 = 0.6	0.555
298.15 K, 101 kPa, x2 = 0.6023	0.5633
298.15 K, 101 kPa, x2 = 0.6707	0.5656
298.15 K, 101 kPa, x2 = 0.6862	0.5668
298.15 K, 101 kPa, x2 = 0.7414	0.5709
298.15 K, 101 kPa, x2 = 0.8	0.574
298.15 K, 101 kPa, x2 = 0.8037	0.581
298.15 K, 101 kPa, x2 = 0.8801	0.5866
298.15 K, 101 kPa, x2 = 0.9029	0.587
298.15 K, 101 kPa, x2 = 0.9214	0.589
298.15 K, 101 kPa, x2 = 0.962	0.5949
298.15 K, 101.33 kPa, x1 = 0.0672	0.5938
298.15 K, 101.33 kPa, x1 = 0.1508	0.5847
298.15 K, 101.33 kPa, x1 = 0.2151	0.5795
298.15 K, 101.33 kPa, x1 = 0.3057	0.5722
298.15 K, 101.33 kPa, x1 = 0.5108	0.5613
298.15 K, 101.33 kPa, x1 = 0.6489	0.559
298.15 K, 101.33 kPa, x1 = 0.8164	0.5493
298.15 K, 101.33 kPa, x1 = 0.9301	0.5403
303.15 K, 101 kPa, x1 = 0.101	0.548
303.15 K, 101 kPa, x1 = 0.245	0.533
303.15 K, 101 kPa, x1 = 0.433	0.527
303.15 K, 101 kPa, x1 = 0.653	0.52
308 K, 101 kPa, x2 = 0.1452	0.4917
308 K, 101 kPa, x2 = 0.2124	0.4939
308 K, 101 kPa, x2 = 0.2765	0.4958
308 K, 101 kPa, x2 = 0.3958	0.5001
308 K, 101 kPa, x2 = 0.5047	0.5049
308 K, 101 kPa, x2 = 0.5556	0.5077
308 K, 101 kPa, x2 = 0.6045	0.5108
308 K, 101 kPa, x2 = 0.6513	0.5136
308 K, 101 kPa, x2 = 0.6963	0.5168
308 K, 101 kPa, x2 = 0.781	0.5225
308 K, 101 kPa, x2 = 0.8594	0.5282
308 K, 101 kPa, x2 = 0.8965	0.5311
308 K, 101 kPa, x2 = 0.9322	0.5336
313.15 K, 101 kPa, x1 = 0.101	0.483
313.15 K, 101 kPa, x1 = 0.245	0.473
313.15 K, 101 kPa, x1 = 0.433	0.47
313.15 K, 101 kPa, x1 = 0.653	0.471
318 K, 101 kPa, x2 = 0.1452	0.451
318 K, 101 kPa, x2 = 0.2124	0.452
318 K, 101 kPa, x2 = 0.2765	0.4532
318 K, 101 kPa, x2 = 0.3958	0.4558
318 K, 101 kPa, x2 = 0.5047	0.4587
318 K, 101 kPa, x2 = 0.5556	0.4602
318 K, 101 kPa, x2 = 0.6045	0.4618
318 K, 101 kPa, x2 = 0.6513	0.4635
318 K, 101 kPa, x2 = 0.6963	0.4652
318 K, 101 kPa, x2 = 0.781	0.4685
318 K, 101 kPa, x2 = 0.8594	0.472
318 K, 101 kPa, x2 = 0.8965	0.4738
318 K, 101 kPa, x2 = 0.9322	0.4755
323.15 K, 101 kPa, x1 = 0.101	0.431
323.15 K, 101 kPa, x1 = 0.245	0.426
323.15 K, 101 kPa, x1 = 0.433	0.43
